Earlier results on one compound are cited in PubChem BioAssay AID1259409 (Chemical Carcinogenesis Research Information System (CCRIS), 2018).

The structures appear in SMILES notation.

The series has as its system rodent chemically induced tumor inhibition, incidence and multiplicity. Kind of series: CCRIS tumor inhibitor studies. The conditions noted are these: Dose [Inhibitor]: 0, Route [Inhibitor]: ORAL, Species: RAT, Strain/Sex: F344/MALE, Promoter: NONE USED.

For `O=C(O)c1ccc(O)c(O)c1`, the “tumour outcome (control, treated, inhibition, significance)” value is, setting by setting: (Carcinogen: AZOXYMETHANE, 25843-45-2, 1000 PPM IN DIET FOR 28 WK BEGINNING 1 WK POST CARCINOGEN TREATMENT (STUDY DURATION: 32 WK), Target Tissue: Type of Lesion: LARGE INTESTINE: ADENOMA, Dose [Carcinogen]: 15 MG/KG BW 1/WK FOR 3 WK) 2/20 (10%), 2/23 (9%), 10%, not significant; (Carcinogen: AZOXYMETHANE, 25843-45-2, 1000 PPM IN DIET FOR 28 WK BEGINNING 1 WK POST CARCINOGEN TREATMENT (STUDY DURATION: 32 WK), Target Tissue: Type of Lesion: SMALL INTESTINE: ADENOCARCINOMA, Dose [Carcinogen]: 15 MG/KG BW 1/WK FOR 3 WK) 6/20 (30%), 2/23 (9%), 70%, not significant; (Carcinogen: AZOXYMETHANE, 25843-45-2, 1000 PPM IN DIET FOR 28 WK BEGINNING 1 WK POST CARCINOGEN TREATMENT (STUDY DURATION: 32 WK), Target Tissue: Type of Lesion: SMALL INTESTINE: ADENOMA, Dose [Carcinogen]: 15 MG/KG BW 1/WK FOR 3 WK) 1/20 (5%), 1/23 (4%), 20%, not significant; (Carcinogen: DIETHYLNITROSAMINE, 55-18-5, 500 PPM IN DIET BEGINNING 1 WK PRIOR TO CARCINOGEN AND CONTINUING FOR 7 WK FOLLOWED BY BASAL DIET FOR 30 WK (STUDY DU, Target Tissue: Type of Lesion: LIVER: ADENOMA OR CARCINOMA, Dose [Carcinogen]: 40 PPM IN DRINKING WATER FOR 5 WK BEGINNING AT 7 WK OF AGE) 18/18 (100%), 12/17 (71%), 29%, p=0.02; (Carcinogen: DIETHYLNITROSAMINE, 55-18-5, 500 PPM IN DIET FOR 7 WK BEGINNING 1 WK PRIOR TO CARCINOGEN TREATMENT (STUDY DURATION: 37 WK), Target Tissue: Type of Lesion: LIVER: ADENOMA, Dose [Carcinogen]: 40 PPM IN DRINKING WATER FOR 5 WK) 89%, 59%, 34%, not significant; (Carcinogen: DIETHYLNITROSAMINE, 55-18-5, 500 PPM IN DIET FOR 7 WK BEGINNING 1 WK PRIOR TO CARCINOGEN TREATMENT (STUDY DURATION: 37 WK), Target Tissue: Type of Lesion: LIVER: CARCINOMA, Dose [Carcinogen]: 40 PPM IN DRINKING WATER FOR 5 WK) 89%, 71%, 20%, not significant. For the same compound, the “tumour outcome (control, treated, inhibition, significance)” value by setting is: (Carcinogen: DIETHYLNITROSAMINE, 55-18-5, 500 PPM IN DIET FOR 30 WK BEGINNING 1 WK POST CARCINOGEN TREATMENT (STUDY DURATION: 37 WK), Target Tissue: Type of Lesion: LIVER: ADENOMA, Dose [Carcinogen]: 40 PPM IN DRINKING WATER FOR 5 WK) 89%, 60%, 33%, p<0.05; (Carcinogen: DIETHYLNITROSAMINE, 55-18-5, 1000 PPM IN DIET FOR 7 WK BEGINNING 1 WK PRIOR TO CARCINOGEN TREATMENT (STUDY DURATION: 37 WK), Target Tissue: Type of Lesion: LIVER: ADENOMA, Dose [Carcinogen]: 40 PPM IN DRINKING WATER FOR 5 WK) 89%, 37%, 58%, p<0.05; (Carcinogen: DIETHYLNITROSAMINE, 55-18-5, 1000 PPM IN DIET FOR 30 WK BEGINNING 1 WK POST CARCINOGEN TREATMENT (STUDY DURATION: 37 WK), Target Tissue: Type of Lesion: LIVER: ADENOMA, Dose [Carcinogen]: 40 PPM IN DRINKING WATER FOR 5 WK) 89%, 68%, 24%, not significant; (Carcinogen: DIETHYLNITROSAMINE, 55-18-5, 1000 PPM IN DIET FOR 30 WK BEGINNING 1 WK POST CARCINOGEN TREATMENT (STUDY DURATION: 37 WK), Target Tissue: Type of Lesion: LIVER: CARCINOMA, Dose [Carcinogen]: 40 PPM IN DRINKING WATER FOR 5 WK) 89%, 32%, 64%, p<0.05; (Carcinogen: N-BUTYL-N-(4-HYDROXYBUTYL)NITROSAMINE, 3817-11-6, 500 PPM IN DIET FOR 8 WK BEGINNING 1 WK PRIOR TO CARCINOGEN TREATMENT (STUDY DURATION: 41 WK), Target Tissue: Type of Lesion: BLADDER: CARCINOMA, Dose [Carcinogen]: 0.05% IN DRINKING WATER FOR 6 WK) 17/22 (77%), 13/22 (59%), 23%, not significant; (Carcinogen: N-BUTYL-N-(4-HYDROXYBUTYL)NITROSAMINE, 3817-11-6, 500 PPM IN DIET FOR 8 WK BEGINNING 1 WK PRIOR TO CARCINOGEN TREATMENT (STUDY DURATION: 41 WK), Target Tissue: Type of Lesion: BLADDER: PAPILLOMA, Dose [Carcinogen]: 0.05% IN DRINKING WATER FOR 6 WK) 1/22 (5%), 3/22 (14%), -180%, not significant. In addition, the “tumour outcome (control, treated, inhibition, significance)” value is listed as 17/22 (77%), 13/25 (52%), 32%, not significant (Carcinogen: N-BUTYL-N-(4-HYDROXYBUTYL)NITROSAMINE, 3817-11-6, 500 PPM IN DIET FOR 33 WK BEGINNING 1 WK POST CARCINOGEN TREATMENT (STUDY DURATION: 41 WK), Target Tissue: Type of Lesion: BLADDER: CARCINOMA, Dose [Carcinogen]: 0.05% IN DRINKING WATER FOR 6 WK); 1/22 (5%), 4/25 (16%), -220%, not significant (Carcinogen: N-BUTYL-N-(4-HYDROXYBUTYL)NITROSAMINE, 3817-11-6, 500 PPM IN DIET FOR 33 WK BEGINNING 1 WK POST CARCINOGEN TREATMENT (STUDY DURATION: 41 WK), Target Tissue: Type of Lesion: BLADDER: PAPILLOMA, Dose [Carcinogen]: 0.05% IN DRINKING WATER FOR 6 WK); 17/22 (77%), 9/22 (41%), 47%, p<0.03 (Carcinogen: N-BUTYL-N-(4-HYDROXYBUTYL)NITROSAMINE, 3817-11-6, 1000 PPM IN DIET FOR 8 WK BEGINNING 1 WK PRIOR TO CARCINOGEN TREATMENT (STUDY DURATION: 41 WK), Target Tissue: Type of Lesion: BLADDER: CARCINOMA, Dose [Carcinogen]: 0.05% IN DRINKING WATER FOR 6 WK); 1/22 (5%), 0/22 (0%), 100%, not significant (Carcinogen: N-BUTYL-N-(4-HYDROXYBUTYL)NITROSAMINE, 3817-11-6, 1000 PPM IN DIET FOR 8 WK BEGINNING 1 WK PRIOR TO CARCINOGEN TREATMENT (STUDY DURATION: 41 WK), Target Tissue: Type of Lesion: BLADDER: PAPILLOMA, Dose [Carcinogen]: 0.05% IN DRINKING WATER FOR 6 WK); 17/22 (77%), 12/25 (48%), 38%, p<0.05 (Carcinogen: N-BUTYL-N-(4-HYDROXYBUTYL)NITROSAMINE, 3817-11-6, 1000 PPM IN DIET FOR 33 WK BEGINNING 1 WK POST CARCINOGEN TREATMENT (STUDY DURATION: 41 WK), Target Tissue: Type of Lesion: BLADDER: CARCINOMA, Dose [Carcinogen]: 0.05% IN DRINKING WATER FOR 6 WK); 1/22 (5%), 2/25 (8%), -60%, not significant (Carcinogen: N-BUTYL-N-(4-HYDROXYBUTYL)NITROSAMINE, 3817-11-6, 1000 PPM IN DIET FOR 33 WK BEGINNING 1 WK POST CARCINOGEN TREATMENT (STUDY DURATION: 41 WK), Target Tissue: Type of Lesion: BLADDER: PAPILLOMA, Dose [Carcinogen]: 0.05% IN DRINKING WATER FOR 6 WK). Further, the “tumour outcome (control, treated, inhibition, significance)” value is listed as 17/22 (77%), 8/25 (32%), 58%, p<0.005 (Carcinogen: N-BUTYL-N-(4-HYDROXYBUTYL)NITROSAMINE, 3817-11-6, 2000 PPM IN DIET FOR 8 WK BEGINNING 1 WK PRIOR TO CARCINOGEN TREATMENT (STUDY DURATION: 41 WK), Target Tissue: Type of Lesion: BLADDER: CARCINOMA, Dose [Carcinogen]: 0.05% IN DRINKING WATER FOR 6 WK) and 1/22 (5%), 3/25 (12%), -140%, not significant (Carcinogen: N-BUTYL-N-(4-HYDROXYBUTYL)NITROSAMINE, 3817-11-6, 2000 PPM IN DIET FOR 8 WK BEGINNING 1 WK PRIOR TO CARCINOGEN TREATMENT (STUDY DURATION: 41 WK), Target Tissue: Type of Lesion: BLADDER: PAPILLOMA, Dose [Carcinogen]: 0.05% IN DRINKING WATER FOR 6 WK).
